What all share (format): cell-based
One assay concerns STAT1. Briefly: STAT1 assay (selectivity counter-screen). (The purpose of a counterscreen is to sort out artefacts and off-target activity.)
A further assay relates to Cal33 cells. Briefly: Cal33 growth inhibition.
The subject of a further assay is STAT3. Briefly: HCS STAT3 assay. The note with it: read-out: STAT3 IC50 (converted).
In assay [1] the test system is HNSCC cell lines 686LN, FADU, CAL33, OSC19. Briefly: Growth inhibition on HNSCC cell line panel. The note with it: range over cell lines 686LN.
Another assay deals with OSC19. The assay is described as follows: Growth inhibition on HNSCC cell line OSC19. The note with it: average of 2 experiments; read-out: 0SC19 GI50.
A further assay relates to FADU. The assay is described as follows: Growth inhibition on HNSCC cell line FADU. The note with it: average of 2 experiments.
For another assay, the system named is 686LN. The assay is described as follows: Growth inhibition on HNSCC cell line 686LN. The conditions noted are these: average of 2 experiments.
Setting [2] is: Table 5, * average of 2 experiments.
Setting [3] is: Table 6, average of 2 experiments.

This is an account of results in patent US10618914B2 (UNIVERSITY OF PITTSBURGH—OF THE COMMONWEALTH SYSTEM OF …, priority 2015, dated 2020).

Like-named read-outs stand apart in the source and are kept apart here.

By IC50 is commonly meant the point on the concentration scale where inhibition reaches its midpoint. For orientation: GI50 means the concentration at which growth is held to half of that of the control. Regarding `COc1ccc(C2=Nn3c(nnc3-c3cc(-c4ccc(F)cc4)n[nH]3)SC2C)cc1` (centres unmarked) [Cmpd 23], the concentration for half-maximal inhibition (IC50) in the assay with STAT1 (setting [2]) is above 30 µM; in the assay with STAT3 (setting [2]), 4.2 µM. Moreover, the 50% growth inhibitory concentration (GI50) in the assay with Cal33 cells (setting [2]) was 29.5 ± 6.5 µM.

Consider `CC1Sc2nnc(-c3cc(-c4ccc(F)cc4)n[nH]3)n2N=C1c1ccccc1` (centres unmarked) [Cmpd 22], for which the half-maximal inhibitory concentration (IC50) with STAT1 (setting [2]) was above 30 µM; in the assay with STAT3 (setting [2]), 3.8 ± 0.8 µM. Moreover, halving of growth with Cal33 cells (setting [2]) (GI50) required 36.3 ± 9.7 µM.

For the molecule `Clc1ccc(C2=Nn3c(nnc3-c3[nH]nc4c3CCC4)SC2)cc1Cl` [1a], the IC50 is above 50 µM with STAT1 (Table 4) and 6.8 ± 3.7 µM in the assay with STAT3 (Table 4). The molecule further yielded a GI50 in assay [1] of 14 to 26 µM.

Turning to `COc1ccc(C2=Nn3c(nnc3-c3cc(-c4ccc(Cl)cc4)n[nH]3)SC2C)cc1` (centres unmarked) [compound 24], the GI50 with OSC19 stood at 14.9 µM; with FADU it was 8.4 µM; in the assay with 686LN it was 17.4 µM; in the assay with Cal33 cells (setting [3]), 2.2 µM.

Take `CCC(C)C1Sc2nnc(-c3[nH]nc4c3CCC4)n2N=C1c1ccc(OC)cc1` (centres unmarked) [Cmpd 27]: the IC50 is above 50 µM with STAT1 (setting [2]) and 4.1 µM in the assay with STAT3 (setting [2]). The same molecule gave a concentration for 50% growth inhibition (GI50) in the assay on Cal33 cells (setting [2]) of 3.5 ± 1.5 µM.

Regarding `CC(C)C1Sc2nnc(-c3[nH]nc4c3CCC4)n2N=C1c1ccc(Cl)c(Cl)c1` (centres unmarked) [Cmpd 25], the concentration for half-maximal inhibition (IC50) is above 50 µM in the assay on STAT1 (setting [2]) and 4.4 µM with STAT3 (setting [2]). In the assay with Cal33 cells (setting [2]), the GI50 came to 8.2 µM.

Take `CC1(C)Sc2nnc(-c3[nH]nc4c3CCC4)n2N=C1c1ccc(Cl)c(Cl)c1` [Cmpd 32]: the concentration for half-maximal inhibition (IC50) in the assay with STAT1 (setting [2]) was above 50 µM; with STAT3 (setting [2]), 18.6 µM. The same molecule yielded a GI50 in the assay on Cal33 cells (setting [2]) above 50 µM.

For the molecule `Clc1ccc(C2=Nn3c(nnc3-c3cc(-c4ccccc4)n[nH]3)SC2)cc1` [2b], the half-maximal inhibitory concentration (IC50) with STAT1 (Table 4) was above 50 µM; in the assay with STAT3 (Table 4), 9.6 µM. Also, in assay [1], the GI50 was 27 to 44 µM.

For the molecule `CCCCC1Sc2nnc(-c3[nH]nc4c3CCC4)n2N=C1c1ccc(Cl)c(Cl)c1` (centres unmarked) [Cmpd 29], the results for the half-maximal inhibitory concentration (IC50) with STAT1 (setting [2]) and in the assay with STAT3 (setting [2]) were above 50 µM and 7.5 µM, respectively. The 50% growth inhibitory concentration (GI50) in the assay on Cal33 cells (setting [2]) came out at 3.3 µM.

As for `CC1Sc2nnc(-c3[nH]nc4c3CCC4)n2N=C1c1ccc(Cl)c(Cl)c1` (centres unmarked) [Cmpd 19], the IC50 is above 50 µM in the assay on STAT1 (setting [2]) and 8.2 ± 2.2 µM in the assay on STAT3 (setting [2]). This molecule also had a 50% growth inhibitory concentration (GI50) with Cal33 cells (setting [2]) of 1.9 ± 1.2 µM.

Take `CC1Sc2nnc(-c3cc(-c4ccccc4)n[nH]3)n2N=C1c1ccccc1` (centres unmarked) [Cmpd 21]: the IC50 with STAT1 (setting [2]) is 15 µM; with STAT3 (setting [2]), 3.4 µM. In the assay with Cal33 cells (setting [2]), growth was halved (GI50) at 34.1 ± 8.7 µM.

For the molecule `COc1ccc(C2=Nn3c(nnc3-c3[nH]nc4c3CCC4)SC2C)cc1` (centres unmarked) [Cmpd 20], the IC50 in the assay with STAT1 (setting [2]) is above 50 µM; in the assay on STAT3 (setting [2]) it was 9.1 µM. This molecule returned a GI50 with Cal33 cells (setting [2]) of 0.2 µM.

With `COc1ccc(C2=Nn3c(nnc3-c3[nH]nc4c3CCC4)SC2C)cc1` (centres unmarked) [compound 20], the GI50 was determined as 3.1 µM in the assay on OSC19, 1.3 µM in the assay with FADU, 0.88 µM in the assay on 686LN and 0.18 µM in the assay on Cal33 cells (setting [3]).
